In brackets after ≈: the same amount, converted by molar mass. Where a name gives a salt, the structure may show the parent alone. Read-outs that look alike come from different tables or passages of the source.
Key:
[1] = system: chloroquine-resistant K1 strain of P. falciparum; assay: In vitro antimalarial semiautomated microdilution assay ([3H]-hypoxanthine incorporation), K1 strain; type: cell-based, Plasmodium falciparum; settings: Plasmodium falciparum
Procedure, shortened: (§1)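 Semiautomated microdilution against intraerythrocytic P. falciparum from asynchronous stock cultures, with growth tracked by [3H]-hypoxanthine incorporation. IC50 values were estimated by Logit regression analysis.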

[2] = system: chloroquine-sensitive NF54 strain of P. falciparum; assay: In vitro antimalarial semiautomated microdilution assay ([3H]-hypoxanthine incorporation), NF54 strain; type: cell-based, Plasmodium falciparum; settings: Plasmodium falciparum
Procedure, shortened: as §1

[3] = system: ANKA strain of P. berghei; assay: Single dose STI in vivo screen in infected mice; set-up: species or system Plasmodium berghei; settings: for Survival (days) 10 mg/kg po: single 10 mg/kg po in 3% ethanol and 7% Tween 80; for Survival (days) 10 mg/kg po / Survival (days) 10 mg/kg SSV po / Survival (days) 10 mg/kg sc: untreated 6-7 days; for Activity (%) 10 mg/kg po: single 10 mg/kg po in 3% ethanol and 7% Tween 80 on day 1 post-infection; for Survival (days) 10 mg/kg SSV po: single 10 mg/kg po in SSV; for Activity (%) 10 mg/kg SSV po: single 10 mg/kg po in standard suspending vehicle (SSV) on day 1 post-infection; for Survival (days) 10 mg/kg sc: single 10 mg/kg sc in 3% ethanol and 7% Tween 80; for Activity (%) 10 mg/kg sc: single 10 mg/kg sc in 3% ethanol and 7% Tween 80 on day 1 post-infection
[4] = K1, 72 h, read-out: IC50 (ng/ml) K1, chloroquine-resistant K1 strain, 72 h incubation
[5] = NF54, 72 h, read-out: IC50 (ng/ml) NF54, chloroquine-sensitive NF54 strain, 72 h incubation
[6] = percent reduction in parasitemia on day 3
[7] = chloroquine-resistant K1 strain, 72 h incubation, read-out: IC50 (ng/ml) K1
[8] = chloroquine-sensitive NF54 strain, 72 h incubation, read-out: IC50 (ng/ml) NF54

Structure (SMILES) | IC50 [1, 4] [ng/mL] | IC50 [2, 5] [ng/mL] | Survival (days) 10 mg/kg po [3] [days] | Activity (%) 10 mg/kg po [3, 6] [%] | Survival (days) 10 mg/kg SSV po [3] [days] | Activity (%) 10 mg/kg SSV po [3, 6] [%] | Survival (days) 10 mg/kg sc [3] [days] | Activity (%) 10 mg/kg sc [3, 6] [%] | IC50 [1, 7] [ng/mL] | IC50 [2, 8] [ng/mL] | Survival (days) 3 mg/kg SSV po ([3]; single 3 mg/kg po in SSV) [days] | Activity (%) 3 mg/kg SSV po ([3]; single 3 mg/kg po in SSV, percent reduction in parasitemia on day 3) [%]
O=S(=O)(Cc1ccccc1)N1CCC2(CC1)OOC1(O2)C2CC3CC(C2)CC1C3 (centres unmarked) [OZ131, Adamantane-2-spiro-3′-8′-phenylmethanesulfonyl-1′,2′,4′-trioxa-8′-azaspiro[4.5]decane] | 1.7 (≈ 4.05 nM) | 4.1 (≈ 9.77 nM) | 5.7 | 21 | 6.0 | 41 | 8.0 | 90 |  |  |  | 
C1C2CC3CC1CC(C2)C31OO[C@]2(CC[C@@H](CNC3CC3)CC2)O1 (some centres unmarked) [OZ253] |  |  | 7.0 | 75 | 6.7 | 59 | 9.3 | 99.82 | 0.56 (≈ 1.68 nM) | 0.45 (≈ 1.35 nM) |  | 
O=C(C[C@H]1CC[C@]2(CC1)OO[C@]1(O2)C2CC3CC(C2)CC1C3)N1CCC(O)CC1 [OZ297] |  |  |  |  | 9.8 | 99.69 |  |  | 0.49 (≈ 1.21 nM) | 0.76 (≈ 1.87 nM) | 7.6 | 83
C(CNC1CCC2(CC1)OOC1(O2)C2CC3CC(C2)CC1C3)CN1CCOCC1 (centres unmarked) [OZ161] | 0.4 (≈ 0.984 nM) | 0.5 (≈ 1.23 nM) | 7.0 | 59 | 6.7 | 46 | 12.7 | 99.96 |  |  |  | 
CC(C)(C)NC(=O)N[C@H]1CC[C@]2(CC1)OOC1(O2)C2CC3CC(C2)CC1C3 (some centres unmarked) [OZ222] |  |  | 7.7 | 87 | 7.0 | 75 | 10.0 | 99.76 | 3.9 (≈ 10.3 nM) | 6.3 (≈ 16.6 nM) |  | 
O=C(C[C@H]1CC[C@]2(CC1)OOC1(O2)C2CC3CC(C2)CC1C3)N1CCCCC1 (some centres unmarked) [OZ218] |  |  | 10.0 | 98 | 14.3 | 99.30 | 9.0 | 99.68 | 2 (≈ 5.13 nM) | 3 (≈ 7.7 nM) |  | 
CN(C)C(=O)NC[C@H]1CC[C@]2(CC1)OOC1(O2)C2CC3CC(C2)CC1C3 (some centres unmarked) [OZ266] |  |  | 13.7 | 99 | 11.7 | 99.39 | 11.7 | 99.75 | 1.1 (≈ 3.02 nM) | 1.5 (≈ 4.12 nM) |  | 
CC(=O)Nc1ccc(S(=O)(=O)N2CCC3(CC2)OOC2(O3)C3CC4CC(C3)CC2C4)cc1 (centres unmarked) [OZ104, Adamantane-2-spiro-3′-8′-[[4-(acetylamino)phenyl]sulfonyl]-1′,2′,4′-trioxa-8′-azaspiro[4.5]decane] | 1.4 (≈ 3.03 nM) | 0.5 (≈ 1.08 nM) | 6.3 | 56 | 5.7 | 0 | 12.0 | 99.98 |  |  |  | 
N=C(N)N1CCC2(CC1)OOC1(O2)C2CC3CC(C2)CC1C3 (centres unmarked) [OZ191, Adamantane-2-spiro-3′-8′-amidino-1′,2′,4′-trioxa-8′-azaspiro[4.5]decane hydrochloride] | 6 | > 10 | 5.7 | 7 | 5.7 | 5 | 6.0 | 17 |  |  |  | 
CCCCS(=O)(=O)N1CCC2(CC1)OOC1(O2)C2CC3CC(C2)CC1C3 (centres unmarked) [OZ92, Adamantane-2-spiro-3′-8′-(1′-butanesulfonyl)-1′,2′,4′-trioxa-8′-azaspiro[4.5]decane] | 1.6 (≈ 4.15 nM) | 0.4 (≈ 1.04 nM) | 6.7 | 81 | 6.3 | 35 | 10.0 | 99.98 |  |  |  | 
O=C(NC[C@H]1CC[C@]2(CC1)OOC1(O2)C2CC3CC(C2)CC1C3)c1cc[n+]([O-])cc1 (some centres unmarked) [OZ264] |  |  | 11.0 | 99.61 | 10.3 | 99.92 | 13.7 | 99.97 | 1.2 (≈ 2.9 nM) | 1.5 (≈ 3.62 nM) |  | 
